This data set concerns minipigs. Kind of data set: Cardiovascular safety in anesthetized minipigs, escalating 15-minute IV infusions. The data set is classed as in vivo, minipig. As to the method:
Animals were administered morphine (2 mg/kg subcutaneously) prior to induction of anesthesia. […] Animals were placed on a heating pad set to maintain the animal's body temperature at approximately 37° C. Body temperature was monitored throughout the experiment via a rectal thermometer or via the Swan Ganz (thermodilution catheter) once implanted. Animals were intubated and placed on a ventilator supplemented with oxygen to maintain oxygenation within the normal physiological range. The animals were mechanically ventilated at a rate of 11-13 breaths/minute and a peak inspiratory pressure of 18 cm H2O. The following parameters were regularly monitored in order to ensure proper ventilation of the animals but are not reported: SpO2, inspiratory and expiratory CO2, inspiratory O2 and respiratory rate.
A Swan Ganz (thermodilution catheter) was inserted into the right femoral vein via phlebotomy and advanced into the pulmonary artery for cardiac output measurements. A catheter was inserted in the left femoral artery via an arteriotomy for blood gas determination. Another catheter was inserted in the left femoral vein for blood collection for toxicokinetic evaluation. Finally, an incision was also performed on the left side of the neck to expose the left carotid artery and an electronic dual pressure sensor catheter (Millar) was placed via arteriotomy and advanced into the left ventricle. The catheter was positioned to simultaneously collect left ventricle blood pressure measurements as well as aortic pressure. In addition, a temporary catheter was placed in any of the cephalic veins for administration of Lactated Ringers at 10 mL/kg/hr throughout the course of the experiment.
Following surgical preparation, hemodynamic and electrocardiographic parameters were allowed to stabilize for at least 15 minutes. The vehicle control and test article were then administered, and hemodynamic, electrocardiographic, histamine and PK parameters were monitored.

Several values for one entry are separate records, joined by “and”; a condition that tells them apart may be missing. Identical values can stand only once.

The record followed here is patent US8541464B2, “Treatment of atrial fibrillation” (HUYA Biosciences International LLC, priority 2009, dated 2013).

Regarding sulcardine sulfate, the QTcC prolongation is reported as 15% (10 mg/kg, Animal 1601C); “up to 30%” (30 and 90 mg/kg, both animals). Further, the PR interval increase result (10 mg/kg, per animal) was “+38% and +10%”. In addition, where the note is “90 mg/kg, during or at completion of the 15-minute infusion”, the mortality entry is reported as “both animals succumbed”. The histamine levels result (all doses) was “no appreciable increases”. The QRS durations result (starting at 10 mg/kg, both animals) was “dose dependent pattern of increasing QRS durations”.
